Reference: publication PMC5107945, “Abscinazole-E3M, a practical inhibitor of abscisic acid 8′-hydroxylase for improving drought tolerance” (Scientific Reports, 2016)

Legend:
[1] = biological target: T1, Rice recombinant CYP701A6 (ent-kaurene oxidase) (Oryza sativa subsp. japonica, UniProt Q5Z5R4); experiment: CYP701A6 inhibition assay (formation of end product KA); format: biochemical; conditions: Rice recombinant CYP701A6 expressed in insect cells; 10 μM ent-kaurene; formation of KA; read-out: CYP701A IC50
T1 construct: made in house; host or cells: insect cells (baculovirus vector)
T1 sequence (Q5Z5R4 1-505): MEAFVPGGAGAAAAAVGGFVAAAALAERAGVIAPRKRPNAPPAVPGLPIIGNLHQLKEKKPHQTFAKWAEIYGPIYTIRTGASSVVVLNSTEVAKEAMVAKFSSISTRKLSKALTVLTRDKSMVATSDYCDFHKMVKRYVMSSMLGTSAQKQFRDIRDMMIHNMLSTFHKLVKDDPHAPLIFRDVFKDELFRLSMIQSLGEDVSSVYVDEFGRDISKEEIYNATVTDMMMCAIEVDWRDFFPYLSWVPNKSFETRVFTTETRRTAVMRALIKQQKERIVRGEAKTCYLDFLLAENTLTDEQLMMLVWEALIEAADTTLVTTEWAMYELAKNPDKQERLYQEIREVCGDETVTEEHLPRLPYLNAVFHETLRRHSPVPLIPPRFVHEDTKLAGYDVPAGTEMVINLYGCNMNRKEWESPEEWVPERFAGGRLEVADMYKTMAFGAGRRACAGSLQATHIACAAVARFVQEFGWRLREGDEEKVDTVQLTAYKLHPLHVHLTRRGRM
Description: To evaluate the enzymatic selectivity between CYP707A and CYP701A, we examined the inhibitory activity against recombinant rice containing CYP701A6 expressed in insect cells using a baculovirus vector. This enzyme catalyses all three steps to KA via the corresponding alcohol and aldehyde, and consequently, the kinetic analysis is very complicated. Therefore, we evaluate the IC50 value for the formation of the end product, KA, instead of the KI value.
Reaction mixtures, containing 0.058 μM of […] microsomes, ATR2 (0.115 U), ent-kaurene (final concentration of 10 μM), inhibitors (0 for control, 1.5–1,500 μM in 8 μL dimethylformamide), and 20 mM NADPH in 500 mM potassium phosphate buffer (pH 7.4), were incubated at 30 °C for 10 min. Reactions were initiated by adding NADPH and stopped by the addition of 100 μL of 1 M HCl. Abietic acid, as the internal standard, was then added to the reaction product, which was extracted with EtOAc (400 μL × 3). The organic phase was dried over Na2SO4 and concentrated in vacuo. To derivatize the reaction products, MeOH (50 μL) and trimethylsilyldiazomethane (2 M in 5 μL hexane) were added, and the reaction mixture was incubated at room temperature for 10 min. The organic solvent was removed under N2, and samples were adjusted to 150 μL with hexane before a gas chromatography-mass spectrometry analysis (QP2010-plus; Shimadzu Corp., Kyoto, Japan). The conditions were as follows: the column was DB-5ms (0.25 mm id × 15 m, 0.25 μm film thickness; Agilent J & W, Folsom, CA, USA), the carrier gas was He, the flow rate was 1.65 mL min^−1, the injection port temperature was 280 °C, splitless injection, and the programmed column temperature was a step gradient of 80 °C for 1 min, 80–200 °C at 18 °C min^−1, 200–210 °C at 2 °C min^−1, 210–280 °C at 30 °C min^−1, and then 280 °C for 3 min. The KA content was calculated from the area ratio of molecular and fragment ions of methyl KA (m/z 316, 273, and 257) to those of methyl abietate (m/z 316 and 256). The inhibition ratio was defined as [(A − B)/A] × 100, where A = the amount of methyl KA/methyl abietate when the inhibitor was absent from the reaction mixture (control), and B = the amount of methyl KA/methyl abietate when the inhibitor was present. All of the tests were conducted at least three times.

endogenous ABA level = experiment: Endogenous ABA levels in Arabidopsis; format: in vivo; conditions: Arabidopsis four-week-old plants, 50 μM, overnight
Description: (§1) The effects of (-)-Abz-[…] were also determined relative to stomatal apertures. Arabidopsis grown in soil pots underwent moderate drought stress under the optimal growth conditions of 22 °C and 60% relative humidity. Under these growth conditions, the leaf surface temperature of the mock-treated controls was 19.5 °C, which was lower than the surrounding atmospheric temperature because of transpirational water loss (Fig. 6a,b)[30]. […] Finally, we examined the effects of (-)-Abz-[…] on drought tolerance under more practical conditions. Three-week-old Arabidopsis were sprayed with an aqueous solution containing 50 μM (-)-Abz-[…]. Water was not supplied for 12 days, and then the plants were rehydrated. […] We also tested the effects of (-)-Abz-[…] on a monocot crop, maize, to evaluate whether (-)-Abz-[…] affected stomatal movement and enhanced ABA response across plant species. […] Thus, the effects of (-)-Abz-[…] were not restricted to the model plant Arabidopsis. Figure 6 Effects of (-)-Abz-[…] on Arabidopsis drought tolerance. (a,b) Three-week-old plants were treated with 50 μM of (-)-Abz-[…] and incubated overnight at 22 °C with 60% relative humidity. Thermal images of plants were obtained using a thermal imaging camera ([…], Nippon Avionics Co., Ltd.), and the average temperatures on leaf surfaces were determined with NS9200 software (n = 5, error bars represent s.d.). […]

[2] = test system: Arabidopsis drought tolerance; experiment: Arabidopsis drought tolerance analysis; format: in vivo; conditions: 50 μM spray, water withheld 12 days, then rehydrated
Description: as §1

abscinazole-E3M [(−)-6]
IC50 [1]: 780 nM | Endogenous ABA content (endogenous ABA level): significantly increase the ABA content | Drought tolerance and survival [2]: induced significant drought tolerance and increased the survival rate
